Test: Pharmacokinetics of Coenzyme Q10 in plasma during and after 144-hour continuous IV infusion
Format: in vivo, human
Parameters: Coenzyme Q10 concentration in plasma, Mean ± SD: unit not given here
Experimental: Pharmacokinetics of Coenzyme Q10 was measured in the patients at time zero and at several time points during and after the 144-hour continuous intravenous (IV) infusion with Coenzyme Q10.

## COC1=C(OC)C(=O)C(C/C=C(\C)CC/C=C(\C)CC/C=C(\C)CC/C=C(\C)CC/C=C(\C)CC/C=C(\C)CC/C=C(\C)CC/C=C(\C)CC/C=C(\C)CCC=C(C)C)=C(C)C1=O [Coenzyme Q10]
220 mg/kg/week, Arm 2, n = 9 (footnote c), time 96 hr
  Coenzyme Q10 concentration in plasma, Mean ± SD: 348 ± 225^c
220 mg/kg/week, Arm 2, n = 9 (footnote c), time 148 hr
  Coenzyme Q10 concentration in plasma, Mean ± SD: 250 ± 251^c
220 mg/kg/week, Arm 2, n = 11 (footnote b), time 4 hr
  Coenzyme Q10 concentration in plasma, Mean ± SD: 158 ± 57^b
220 mg/kg/week, Arm 2, n = 11 (footnote b), time 140 hr
  Coenzyme Q10 concentration in plasma, Mean ± SD: 378 ± 244^b
220 mg/kg/week, Arm 2, n = 11 (footnote b), time 146 hr
  Coenzyme Q10 concentration in plasma, Mean ± SD: 282 ± 207^b
220 mg/kg/week, Arm 2, n = 12 (footnote a), time 1 hr
  Coenzyme Q10 concentration in plasma, Mean ± SD: 150 ± 54^a
220 mg/kg/week, Arm 2, n = 12 (footnote a), time 73 hr
  Coenzyme Q10 concentration in plasma, Mean ± SD: 227 ± 212^a
220 mg/kg/week, Arm 2, n = 12 (footnote a), time 74 hr
  Coenzyme Q10 concentration in plasma, Mean ± SD: 226 ± 193^a
220 mg/kg/week, Arm 2, n = 12 (footnote a), time 143.5 hr
  Coenzyme Q10 concentration in plasma, Mean ± SD: 363 ± 221^a
220 mg/kg/week, Arm 2, n = 13, time 0 hr
  Coenzyme Q10 concentration in plasma, Mean ± SD: 0
220 mg/kg/week, Arm 2, n = 13, time 2 hr
  Coenzyme Q10 concentration in plasma, Mean ± SD: 163 ± 66^
220 mg/kg/week, Arm 2, n = 13, time 24 hr
  Coenzyme Q10 concentration in plasma, Mean ± SD: 251 ± 155
220 mg/kg/week, Arm 2, n = 13, time 71.5 hr
  Coenzyme Q10 concentration in plasma, Mean ± SD: 255 ± 199
220 mg/kg/week, Arm 2, n = 13, time 142 hr
  Coenzyme Q10 concentration in plasma, Mean ± SD: 358 ± 214
274 mg/kg/week, Arm 1, n = 3 (so in the source), time 0 hr
  Coenzyme Q10 concentration in plasma, Mean ± SD: 0
274 mg/kg/week, Arm 1, n = 3 (so in the source), time 1 hr
  Coenzyme Q10 concentration in plasma, Mean ± SD: 173 ± 36
274 mg/kg/week, Arm 1, n = 3 (so in the source), time 2 hr
  Coenzyme Q10 concentration in plasma, Mean ± SD: 175 ± 42
274 mg/kg/week, Arm 1, n = 3 (so in the source), time 4 hr
  Coenzyme Q10 concentration in plasma, Mean ± SD: 185 ± 51
274 mg/kg/week, Arm 1, n = 3 (so in the source), time 24 hr
  Coenzyme Q10 concentration in plasma, Mean ± SD: 261 ± 149
274 mg/kg/week, Arm 1, n = 3 (so in the source), time 71.5 hr
  Coenzyme Q10 concentration in plasma, Mean ± SD: 390 ± 260
274 mg/kg/week, Arm 1, n = 3 (so in the source), time 73 hr
  Coenzyme Q10 concentration in plasma, Mean ± SD: 329 ± 260
274 mg/kg/week, Arm 1, n = 3 (so in the source), time 74 hr
  Coenzyme Q10 concentration in plasma, Mean ± SD: 335 ± 242
274 mg/kg/week, Arm 1, n = 3 (so in the source), time 96 hr
  Coenzyme Q10 concentration in plasma, Mean ± SD: 416 ± 291
274 mg/kg/week, Arm 1, n = 3 (so in the source), time 140 hr
  Coenzyme Q10 concentration in plasma, Mean ± SD: 513 ± 213
274 mg/kg/week, Arm 1, n = 3 (so in the source), time 142 hr
  Coenzyme Q10 concentration in plasma, Mean ± SD: 514 ± 260
274 mg/kg/week, Arm 1, n = 3 (so in the source), time 143.5 hr
  Coenzyme Q10 concentration in plasma, Mean ± SD: 510 ± 259
274 mg/kg/week, Arm 1, n = 3 (so in the source), time 146 hr
  Coenzyme Q10 concentration in plasma, Mean ± SD: 486 ± 254
274 mg/kg/week, Arm 1, n = 3 (so in the source), time 148 hr
  Coenzyme Q10 concentration in plasma, Mean ± SD: 380 ± 219
274 mg/kg/week, Arm 1, n = 4 (footnote e), time 96 hr
  Coenzyme Q10 concentration in plasma, Mean ± SD: 407 ± 195^e
274 mg/kg/week, Arm 1, n = 4 (footnote e), time 140 hr
  Coenzyme Q10 concentration in plasma, Mean ± SD: 517 ± 185^e
274 mg/kg/week, Arm 1, n = 4 (footnote e), time 142 hr
  Coenzyme Q10 concentration in plasma, Mean ± SD: 528 ± 179^e
274 mg/kg/week, Arm 1, n = 5 (footnote d), time 4 hr
  Coenzyme Q10 concentration in plasma, Mean ± SD: 181 ± 56^d
274 mg/kg/week, Arm 1, n = 5 (footnote d), time 71.5 hr
  Coenzyme Q10 concentration in plasma, Mean ± SD: 265 ± 188^d
274 mg/kg/week, Arm 1, n = 5 (footnote d), time 146 hr
  Coenzyme Q10 concentration in plasma, Mean ± SD: 460 ± 249^d
274 mg/kg/week, Arm 1, n = 5 (footnote d), time 148 hr
  Coenzyme Q10 concentration in plasma, Mean ± SD: 397 ± 230^d
274 mg/kg/week, Arm 1, n = 6, time 0 hr
  Coenzyme Q10 concentration in plasma, Mean ± SD: 0
274 mg/kg/week, Arm 1, n = 6, time 1 hr
  Coenzyme Q10 concentration in plasma, Mean ± SD: 188 ± 46
274 mg/kg/week, Arm 1, n = 6, time 2 hr
  Coenzyme Q10 concentration in plasma, Mean ± SD: 190 ± 38
274 mg/kg/week, Arm 1, n = 6, time 24 hr
  Coenzyme Q10 concentration in plasma, Mean ± SD: 287 ± 189
274 mg/kg/week, Arm 1, n = 6, time 73 hr
  Coenzyme Q10 concentration in plasma, Mean ± SD: 367 ± 313
274 mg/kg/week, Arm 1, n = 6, time 74 hr
  Coenzyme Q10 concentration in plasma, Mean ± SD: 387 ± 332
274 mg/kg/week, Arm 1, n = 6, time 143.5 hr
  Coenzyme Q10 concentration in plasma, Mean ± SD: 560 ± 246
342 mg/kg/week, Arm 1, n = 4 (footnote e), time 96 hr
  Coenzyme Q10 concentration in plasma, Mean ± SD: 411 ± 189^e
342 mg/kg/week, Arm 1, n = 4 (footnote e), time 140 hr
  Coenzyme Q10 concentration in plasma, Mean ± SD: 695 ± 414^e
342 mg/kg/week, Arm 1, n = 4 (footnote e), time 143.5 hr
  Coenzyme Q10 concentration in plasma, Mean ± SD: 789 ± 161^e
342 mg/kg/week, Arm 1, n = 4 (footnote e), time 146 hr
  Coenzyme Q10 concentration in plasma, Mean ± SD: 679 ± 141^e
342 mg/kg/week, Arm 1, n = 4 (footnote e), time 148 hr
  Coenzyme Q10 concentration in plasma, Mean ± SD: 596 ± 143^e
342 mg/kg/week, Arm 1, n = 5, time 0 hr
  Coenzyme Q10 concentration in plasma, Mean ± SD: 0
342 mg/kg/week, Arm 1, n = 5, time 1 hr
  Coenzyme Q10 concentration in plasma, Mean ± SD: 289 ± 59
342 mg/kg/week, Arm 1, n = 5, time 2 hr
  Coenzyme Q10 concentration in plasma, Mean ± SD: 297 ± 81
342 mg/kg/week, Arm 1, n = 5, time 4 hr
  Coenzyme Q10 concentration in plasma, Mean ± SD: 304 ± 90
342 mg/kg/week, Arm 1, n = 5, time 24 hr
  Coenzyme Q10 concentration in plasma, Mean ± SD: 463 ± 274
342 mg/kg/week, Arm 1, n = 5, time 71.5 hr
  Coenzyme Q10 concentration in plasma, Mean ± SD: 563 ± 188
342 mg/kg/week, Arm 1, n = 5, time 73 hr
  Coenzyme Q10 concentration in plasma, Mean ± SD: 514 ± 205
342 mg/kg/week, Arm 1, n = 5, time 74 hr
  Coenzyme Q10 concentration in plasma, Mean ± SD: 537 ± 219
342 mg/kg/week, Arm 1, n = 5, time 142 hr
  Coenzyme Q10 concentration in plasma, Mean ± SD: 699 ± 290
Arm 1 (monotherapy), exception: 96-hour sampling time, similar
  Mean plasma concentrations of Coenzyme Q10, comparison of doses: higher for the 342 mg/kg/week dose than for the 274 mg/kg/week dose
Arm 1 vs Arm 2 at any of the dose levels
  Effect of concomitant chemotherapy on the pharmacokinetics of Coenzyme Q10: no apparent effect
Arm 2 (chemotherapy combination therapy), first 72 hours of the infusion, distinctly higher during the second 72 hours
  Plasma profiles of Coenzyme Q10, comparison of doses: slightly higher for the 274 mg/kg/week dose than for the 220 mg/kg/week dose
